Experimental data: publication PMC9603521, “WYBQ-4: a New Bactericidal Agent against Methicillin-Resistant Staphylococcus aureus” (Microbiology Spectrum, 2022)

What was measured:
[1] = tested on: Enterococcus faecium; experiment: MIC by broth microdilution (CLSI); assay type: cell-based; settings: compared to that against Staphylococcus
[2] = tested on: clinically isolated MRSA; experiment: MIC against clinical isolates; assay type: cell-based, Staphylococcus aureus; settings: controls moxalactam and cefepime
Method: (§1) The clinical strains of MRSA and MSSA isolated in Beijing, Sichuan, and Shanghai in the last 3 years totaled more than 300 strains. Clinical isolates were stored at −80°C in 20% glycerol-rich brain heart infusion (BHI) and passaged twice on Trypticase soy agar prior to the experiment. Before the experiment, 16s RNA identification was performed, and then PCR was used to distinguish MRSA and MSSA by identifying the mecA gene. Furthermore, the MIC of cefoxitin against clinical isolates was tested again. The drug sensitivity results were judged according to the criteria established by the American Society for Clinical Laboratory Standardization. MRSA was determined by a cefoxitin MIC of ≥8 μg/mL ([36]). Finally, 100 strains each of MRSA and MSSA were randomly selected from the identified strains for subsequent experiments. All chemical reagents and antibiotics were purchased from Sigma (St. Louis, MO). S. aureus was grown at 30°C in BHI broth (Oxoid) with constant shaking or on BHI agar plates unless otherwise noted. […]
(§2) The antibacterial spectrum and susceptibility of WYBQ-4 against MRSA USA300, MSSA 29213, and clinically isolated S. aureus were determined using a broth microdilution method following the guidelines outlined by the Clinical and Laboratory Standards Institute (CLSI) ([37], [38]). […] The absorbance was measured at 600 nm, and experiments were repeated in three biological replicates.

[3] = tested on: clinically isolated MSSA; experiment: MIC against clinical isolates; assay type: cell-based, Staphylococcus aureus; settings: controls moxalactam and cefepime
Method: as §1, §2

[4] = target: PBP2a (Staphylococcus aureus, UniProt P07944); experiment: PBP2a acylation kinetics, nitrocefin competition assay; assay type: biochemical, MRSA
Chain of PBP2a (P07944 whole entry): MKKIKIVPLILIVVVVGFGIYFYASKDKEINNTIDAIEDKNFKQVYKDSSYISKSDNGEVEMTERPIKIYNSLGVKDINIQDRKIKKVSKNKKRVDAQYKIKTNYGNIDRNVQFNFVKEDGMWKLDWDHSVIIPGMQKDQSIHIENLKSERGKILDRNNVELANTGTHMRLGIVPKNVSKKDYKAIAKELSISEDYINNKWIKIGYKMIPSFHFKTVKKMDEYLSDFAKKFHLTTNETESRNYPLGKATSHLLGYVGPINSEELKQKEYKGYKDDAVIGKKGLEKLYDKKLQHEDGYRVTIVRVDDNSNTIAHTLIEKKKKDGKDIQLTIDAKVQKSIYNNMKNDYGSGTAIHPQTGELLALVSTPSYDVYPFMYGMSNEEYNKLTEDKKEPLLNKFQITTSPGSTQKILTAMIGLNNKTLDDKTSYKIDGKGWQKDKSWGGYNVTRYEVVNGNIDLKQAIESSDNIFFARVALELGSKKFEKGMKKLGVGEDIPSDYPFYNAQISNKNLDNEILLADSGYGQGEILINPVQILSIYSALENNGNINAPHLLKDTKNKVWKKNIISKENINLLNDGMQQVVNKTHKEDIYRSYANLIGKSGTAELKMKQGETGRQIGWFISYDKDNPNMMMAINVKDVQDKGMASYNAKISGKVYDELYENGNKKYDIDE
Method: Please refer to the supplemental material for the kinetic parameters of the interaction between WYBQ-4 and PBP2a and the determination of the rate of diacylation.
Supplementary Method. 1 Determination of the Kinetic Parameters for Interactions of […]
Determination of the kinetic parameters for interactions of WYBQ-4 with PBP2a The kinetic parameters of the interaction of WYBQ-4 with PBP2a were determined as previously described (1). The kinetics of the reaction between PBP2a of MRSA with WYBQ-4 was studied in homogeneous aqueous solution at 37℃ in 25 mM Hepes buffer, pH 7.0, containing 1 M NaCl and the inhibition of PBPs by β-lactams follows this kinetic scheme. […]
In this minimal scheme, E represents PBP2a, EI is the noncovalent preacylation complex, E-I is the covalent acyl-enzyme species, and P denotes the product of E-I hydrolysis and restoration of […]
The typical reactions of β-lactam could be monitored through competition with a chromophoric β-lactam, nitrocefin, or directly in certain cases by fluorescence intensity of protein. In this study, it is proposed to determine the secondary rate constants (k2/Ks) of WYBQ-4 by nitrocefin competition assay. The reaction was conducted in the above buffer, and the reaction system contained PBP2a (2.5 μM) and different concentrations of nitrocefin (20-120 μM). The reaction was carried out in a UV spectrophotometer (PERSEE T600, China) and the change in absorbance at 500 nm was […]
Apparent first-order rate constants for acylation by nitrocefin were determined by fitting the change in absorbance with time to eqn. (1):
A = A0 + ∆εn E0[(1 − exp (−kn∗ t)] + k0N0∆εn Ε0t (1) where A0 is the initial absorbance at 500 nm, ∆εn the change in molar absorption coefficient on nitrocefin hydrolysis (15900 M-1cm-1), E0 the initial enzyme concentration, N0 the initial nitrocefin concentration, kn* the (burst) pseudo-first-order rate constant for acylation of PBP2a by nitrocefin, and k0 the (line) second-order rate constant of a non-specific hydrolysis of nitrocefin in the presence of PBP2a. The second-order rate constants (kn) for acylation were calculated by fitting a plot of the apparent first-order rate constants (kn*) against the concentration of nitrocefin using a linear least-squares method.
Subsequently, nitrocefin (100 μM) was used as a reporter molecule to determine the apparent first-order rate constants for acylation of WYBQ-4 at different concentrations (0-500 μM) in competition assays. In this case, the change in absorbance at 500 nm with time was fitted to eqn.
Α = A + ∆ε E (k∗ ∕ (k∗ + k∗)(1 − exp (−(k∗ + k∗)t)) + k N ∆ε Ε t (2) […]

[5] = tested on: MRSA USA300; experiment: Mouse systemic infection model; assay type: in vivo, mice; settings: USA300 5 × 10^7 CFU, 150 mg/kg, tail intravenous injection at 0 and 3 h, 7-day
Method: (§3) The S. aureus-induced systemic infection model of mice (6-week-old female C57BL/6J mice) was established as previously described ([46]). […] The mice infected in the same way were treated with physiological saline as an infection control group. The mock group was not infected with S. aureus, and the 7-day mortality of the mice in each group was calculated.

[6] = tested on: clinical isolate SA1B2B; experiment: Mouse systemic infection model; assay type: in vivo, mice; settings: different doses
Method: as §3

[7] = tested on: clinical isolate SA28; experiment: Mouse systemic infection model; assay type: in vivo, mice; settings: different doses
Method: as §3

With `C#CCO[C@@]1(NC(=O)CSc2cccc(C)c2)C(=O)N2C(C(=O)O)=C(CSc3nnnn3C)CSC21` (some centres unmarked) [WYBQ-4] the antibacterial activity [1] was “weak”, the “bacteriostatic activity (MIC) versus control drugs” value [2] was “better bacteriostatic activity than the control drugs” and the “bacteriostatic activity (MIC) versus control drugs” value [3] was “better bacteriostatic activity than the control drugs”. The k2 ([4]; PBP2a acylation) was 4.872 ± 0.14 s^–1 × 10^3, the kinact/KI ([4]; pH 7, read-out: k2/ks) was 174 ± 8.45 M⁻¹ s⁻¹ and the survival rate [5] was 100%. The “protection in systemic infection” value [6] was “had a protective effect” and the “protection in systemic infection” value [7] was “had a protective effect”.
